Source: patent US20240252527A9, “NUCLEOSIDE DRUGS FOR THE TREATMENT OR PREVENTION OF CORONAVIRUS INFECTION AND THEIR USES” (Miracure Biotechnology Limited, priority 2022, published 2024)
Like-named read-outs stand apart in the source and are kept apart here.

Assays:
229E = 229E MRC5 CPE assay (cytopathic experiment); assay type: cell-based, coronavirus 229E (HCoV-229E)
Experimental: (§1) Cells were seeded into microplates at a certain density and cultured overnight in a incubator at 5% CO2, 37° C. The next day, double-diluted compound and virus were added. It was set up a cell control group (cells without treatment with a compound or virus infection), a virus control group (cells infected with virus, no compound treatment) and a culture medium control group (medium only). Cells were cultured in the incubator for 3 days (229E) or 7 days (OC43). Cytotoxicity experiments were performed under the same conditions as antiviral experiments, but without virus infection. Cell viability was tested using a cell viability assay kit Cell Titer Glo (Promega).
(§2) The antiviral activity and cytotoxicity of the compounds were expressed by the inhibition rate (%) and cell viability (%) of the compounds against virus-induced cytopathic effects at different concentrations, respectively. Nonlinear fitting analysis on the inhibition rate and cell viability of the compounds were carried out with the GraphPad Prism, and the half effective concentration (EC50), the […] effective concentration (EC90), the half cytotoxic concentration (CC50) and the 90% cytotoxic concentration of the compound […] values were calculated.

OC43 = OC43 Huh7 CPE assay (cytopathic experiment); assay type: cell-based, coronavirus OC43 (HCoV-OC43); details: for EC50: read-out: OC43 Huh7 CPE assay (μM) EC50; for EC90: read-out: OC43 Huh7 CPE assay (μM) EC90
Experimental: as §1, §2

[1] = Human coronavirus 229E, MRC5, 72 h, read-out: 229E MRC5 CPE assay (μM) EC50
[2] = Human coronavirus 229E, MRC5, 72 h, read-out: 229E MRC5 CPE assay (μM) EC90
[3] = Betacoronavirus 1, OC43, Huh-7, 168 h
[4] = Human coronavirus 229E, MRC5, 72 h; read-out: 229E MRC5 CPE assay (μM) EC50
[5] = Human coronavirus 229E, MRC5, 72 h; read-out: 229E MRC5 CPE assay (μM) EC90
[6] = Betacoronavirus 1, Huh-7, 168 h, Huh7 cells, OC43 virus, 7 days, Cell Titer Glo
[7] = Huh7 cells, OC43 virus, 7 days, Cell Titer Glo

Structure (SMILES) | EC50 (229E; [1]) [µM] | EC90 (229E; [2]) [µM] | EC50 (OC43; [3]) [µM] | EC90 (OC43; [3]) [µM] | other results
CCC(CC)COC(=O)[C@H](C)NP(=O)(OCOC(=O)C(C)(C)C)OC[C@H]1O[C@@](C#N)(c2ccc3c(N)ncnn23)[C@H](O)[C@@H]1O (stereo partly shown) [Compound 193] | 0.1 to 0.5 | > 0.5 | 0.1 to 0.5 | > 0.5 | 
CCC(CC)COC(=O)[C@H](C)NP(=O)(OC[C@H]1O[C@@](C#N)(c2ccc3c(N)ncnn23)[C@H](O)[C@@H]1O)Oc1ccc(N)cc1C(=O)O (stereo partly shown) [Compound 107] |  |  |  |  | EC50 (229E; [4]): > 0.5 µM; EC90 (229E; [5]): > 0.5 µM; EC50 (OC43; [6]): > 0.5 µM; EC90 (OC43; [6]): > 0.5 µM
CCCN(CCC)S(=O)(=O)c1ccc(C(=O)OCO[P@@](=O)(NC(C)(C)C(=O)OC(C)C)OC[C@H]2O[C@@](C#N)(c3ccc4c(N)ncnn34)[C@H](O)[C@@H]2O)cc1 [Compound 162] | > 0.5 | > 0.5 | > 0.5 | > 0.5 | 
N#C[C@@]1(c2ccc3c(N)ncnn23)O[C@@H]2COP(=O)(O)O[C@H]2[C@H]1O [Compound 094] | > 0.5 | > 0.5 | > 0.5 | > 0.5 | 
CCCC(CCC)C(=O)OC(C)O[P@]1(=O)OC[C@H]2O[C@@](C#N)(c3ccc4c(N)ncnn34)[C@H](O)[C@@H]2O1 (stereo partly shown) [Compound 142] |  |  |  |  | EC50 (229E; read-out: 229E MRC5 CPE assay (μM) EC50; MRC5 cells, 229E virus, 3 days, Cell Titer Glo): > 0.5 µM; EC90 (229E; read-out: 229E MRC5 CPE assay (μM) EC90; MRC5 cells, 229E virus, 3 days, Cell Titer Glo): > 0.5 µM; EC50 (OC43; [7]): > 0.5 µM; EC90 (OC43; [7]): > 0.5 µM
[2H]c1cc([C@]2(C#N)O[C@@H]3CO[P@](=O)(OCCSC(=O)C(C)(C)C)O[C@H]3[C@H]2O)n2ncnc(N)c12 [Compound 238] | < 0.1 | < 0.1 | < 0.1 | < 0.1 | 
CC(C)(C)C(=O)OCO[P@@](=O)(OC[C@H]1O[C@@](C#N)(c2ccc3c(N)ncnn23)[C@H](O)[C@@H]1O)Oc1cccc2ccccc12 [Compound 216] |  |  | > 0.5 | > 0.5 | EC50 (229E; [4]): > 0.5 µM; EC90 (229E; [5]): > 0.5 µM
CCCN(CCC)S(=O)(=O)c1ccc(C(=O)OCO[P@@]2(=O)OCC3O[C@@](C#N)(c4ccc5c(N)ncnn45)[C@H](O)[C@@H]3O2)cc1 (stereo partly shown) [Compound 156] | 0.1 to 0.5 | > 0.5 | > 0.5 | > 0.5 | 
CCCC(CCC)C(=O)OCO[P@](=O)(N[C@@H](C)C(=O)OCC)OC[C@H]1O[C@@](C#N)(c2ccc3c(N)ncnn23)[C@H](O)[C@@H]1O [Compound 097] | < 0.1 | 0.1 to 0.5 | 0.1 to 0.5 | 0.1 to 0.5 | 
CC(C)(C)C(=O)SCCO[P@@]1(=O)OC[C@H]2O[C@@](C#N)(c3ccc4c(N)ncnn34)[C@H](O)[C@@H]2O1 [Compound 236] | < 0.1 | < 0.1 | < 0.1 | < 0.1 | 
CC(C)(C)C(=O)OCOP(=O)(OCOC(=O)C(C)(C)C)OC[C@H]1O[C@@](C#N)(c2ccc3c(N)ncnn23)[C@H](O)[C@@H]1O [Compound 196] | 0.1 to 0.5 | > 0.5 | 0.1 to 0.5 | > 0.5 | 
[2H]c1cc([C@]2(C#N)O[C@@H]3CO[P@](=O)(OCOC(=O)C(CCC)CCC)O[C@H]3[C@H]2O)n2ncnc(N)c12 [Compound 210] | < 0.1 | < 0.1 | < 0.1 | 0.1 to 0.5 | 
CCN(CC)Cc1cc(Nc2ccnc3cc(Cl)ccc23)ccc1O[P@](=O)(N[C@@H](C)C(=O)OC)OC[C@H]1O[C@@](C#N)(c2ccc3c(N)ncnn23)[C@H](O)[C@@H]1O [Compound 087] |  |  |  |  | EC50 (229E; [4]): > 0.5 µM; EC90 (229E; [5]): > 0.5 µM; EC50 (OC43; [6]): > 0.5 µM; EC90 (OC43; [6]): > 0.5 µM
CC(C)OC(=O)C(C)(C)N[P@](=O)(OCOC(=O)c1cccnc1)OC[C@H]1O[C@@](C#N)(c2ccc3c(N)ncnn23)[C@H](O)[C@@H]1O [Compound 176] | > 0.5 | > 0.5 | > 0.5 | > 0.5 | 
CCCC(CCC)C(=O)OCO[P@@](=O)(NC(C)(C)C(=O)OCC(CC)CC)OC[C@H]1O[C@@](C#N)(c2ccc3c(N)ncnn23)[C@H](O)[C@@H]1O [Compound 121] | 0.1 to 0.5 | 0.1 to 0.5 | 0.1 to 0.5 | > 0.5 | 
CCCC(CCC)C(=O)OCO[P@](=O)(N[C@@H](C)C(=O)OC(C)C)OC[C@H]1O[C@@](C#N)(c2ccc3c(N)ncnn23)[C@H](O)[C@@H]1O [Compound 074] | < 0.1 | < 0.1 | < 0.1 | 0.1 to 0.5 | 

Structure (SMILES) | EC50 (229E; [1]) [µM] | EC90 (229E; [2]) [µM] | EC50 (OC43; [3]) [µM] | EC90 (OC43; [3]) [µM] | other results
CC(C)OC(=O)CO[P@]1(=O)OC[C@H]2O[C@@](C#N)(c3ccc4c(N)ncnn34)[C@H](O)[C@@H]2O1 [Compound 146] | > 0.5 | > 0.5 | > 0.5 | > 0.5 | 
CC(C)OC(=O)CO[P@@]1(=S)OC[C@H]2O[C@@](C#N)(c3ccc4c(N)ncnn34)[C@H](O)[C@@H]2O1 [Compound 150] |  |  | > 0.5 | > 0.5 | EC50 (229E; [4]): > 0.5 µM; EC90 (229E; [5]): > 0.5 µM
N#C[C@@]1(c2ccc3c(N)ncnn23)O[C@@H]2CO[P@@](=O)(OCOC(=O)CCCc3ccccc3)O[C@H]2[C@H]1O [Compound 264] | < 0.1 | 0.1 to 0.5 | > 0.5 | > 0.5 | 
N#C[C@@]1(c2ccc3c(N)ncnn23)O[C@H](COP(=O)(OCOC(=O)CCCc2ccccc2)OCOC(=O)CCCc2ccccc2)[C@@H](O)[C@H]1O [Compound 266] | > 0.5 | > 0.5 | > 0.5 | > 0.5 | 
N#C[C@@]1(c2ccc3c(N)ncnn23)O[C@@H]2CO[P@](=O)(Oc3ccccc3)O[C@H]2[C@H]1O [Compound 221] |  |  | > 0.5 | > 0.5 | EC50 (229E; [4]): > 0.5 µM; EC90 (229E; [5]): > 0.5 µM
CCCC(CCC)C(=O)OCO[P@]1(=O)OC[C@H]2O[C@@](C#N)(c3ccc4c(N)ncnn34)[C@H](O)[C@@H]2O1 [Compound 130] | < 0.1 | 0.1 to 0.5 | < 0.1 | 0.1 to 0.5 | 
N#C[C@@]1(c2ccc3c(N)ncnn23)O[C@@H]2COP(=O)(O)O[C@H]2[C@H]1OC(=O)CCCc1ccccc1 [Compound 260] | 0.1 to 0.5 | 0.1 to 0.5 | > 0.5 | > 0.5 | 
CCN(CC)Cc1cc(Nc2ccnc3cc(Cl)ccc23)ccc1O[P@](=O)(N[C@@H](C)C(=O)OC(C)C)OC[C@H]1O[C@@](C#N)(c2ccc3c(N)ncnn23)[C@H](O)[C@@H]1O [Compound 086] |  |  |  |  | EC50 (229E; [4]): > 0.5 µM; EC90 (229E; [5]): > 0.5 µM; EC50 (OC43; [6]): > 0.5 µM; EC90 (OC43; [6]): > 0.5 µM
CCC(CC)COC(=O)[C@H](C)N[P@](=O)(OC[C@H]1O[C@@](C#N)(c2ccc3c(N)ncnn23)[C@H](O)[C@@H]1O)Oc1ccccc1 [Remdesivir, reference compound] |  |  |  |  | EC50 (229E; [4]): < 0.1 µM; EC90 (229E; [5]): 0.1 to 0.5 µM; EC50 (OC43; [6]): < 0.1 µM; EC90 (OC43; [6]): < 0.1 µM
CC(C)(C)C(=O)OCO[P@](=O)(OC[C@H]1O[C@@](C#N)(c2ccc3c(N)ncnn23)[C@H](O)[C@@H]1O)Oc1cccc2ccccc12 [Compound 217] |  |  | > 0.5 | > 0.5 | EC50 (229E; [4]): > 0.5 µM; EC90 (229E; [5]): > 0.5 µM
CCC(CC)COC(=O)[C@H](C)N[P@@](=O)(OC[C@H]1O[C@@](C#N)(c2ccc3c(N)ncnn23)[C@H](O)[C@@H]1O)Oc1ccc(C[C@H](NC(=O)OCc2ccccc2)C(=O)OC2CCCC2)cc1 [Compound 218] |  |  |  |  | EC50 (229E; [4]): > 0.5 µM; EC90 (229E; [5]): > 0.5 µM; EC50 (OC43; [6]): > 0.5 µM; EC90 (OC43; [6]): > 0.5 µM
CC(C)OC(=O)C(C)(C)NP(=O)(OCOC(=O)c1cccnc1)OC[C@H]1O[C@@](C#N)(c2ccc3c(N)ncnn23)[C@H](O)[C@@H]1O (stereo partly shown) [Compound 177] | > 0.5 | > 0.5 | > 0.5 | > 0.5 | 
CCCC(CCC)C(=O)OCO[P@](=O)(NC(C)(C)C(=O)OC(C)C)OC[C@H]1O[C@@](C#N)(c2ccc3c(N)ncnn23)[C@H](O)[C@@H]1O [Compound 122] | 0.1 to 0.5 | 0.1 to 0.5 | 0.1 to 0.5 | 0.1 to 0.5 | 
CCCN(CCC)S(=O)(=O)c1ccc(C(=O)OCOP(=O)(OCOC(=O)c2ccc(S(=O)(=O)N(CCC)CCC)cc2)OC[C@H]2O[C@@](C#N)(c3ccc4c(N)ncnn34)[C@H](O)[C@@H]2O)cc1 [Compound 164] | > 0.5 | > 0.5 | > 0.5 | > 0.5 | 
CCCC(CCC)C(=O)OCO[P@](=O)(N[C@H](C)C(=O)OC(C)C)OC[C@H]1O[C@@](C#N)(c2ccc3c(N)ncnn23)[C@H](O)[C@@H]1O [Compound 036] | 0.1 to 0.5 | 0.1 to 0.5 | 0.1 to 0.5 | > 0.5 | 
